Laboratory results: patent US9296704B2, “Substituted pyrimidines as protein kinase inhibitors” (CELGENE AVILOMICS RESEARCH, INC., priority 2007, dated 2016)

How the values were obtained:
[1] = target: T1, JAK3 (Homo sapiens, UniProt P52333); assay: Omnia assay for potency against JAK3; format: biochemical; details: read-out: JAK3 Inhibition
T1 sequence (P52333 1-1124): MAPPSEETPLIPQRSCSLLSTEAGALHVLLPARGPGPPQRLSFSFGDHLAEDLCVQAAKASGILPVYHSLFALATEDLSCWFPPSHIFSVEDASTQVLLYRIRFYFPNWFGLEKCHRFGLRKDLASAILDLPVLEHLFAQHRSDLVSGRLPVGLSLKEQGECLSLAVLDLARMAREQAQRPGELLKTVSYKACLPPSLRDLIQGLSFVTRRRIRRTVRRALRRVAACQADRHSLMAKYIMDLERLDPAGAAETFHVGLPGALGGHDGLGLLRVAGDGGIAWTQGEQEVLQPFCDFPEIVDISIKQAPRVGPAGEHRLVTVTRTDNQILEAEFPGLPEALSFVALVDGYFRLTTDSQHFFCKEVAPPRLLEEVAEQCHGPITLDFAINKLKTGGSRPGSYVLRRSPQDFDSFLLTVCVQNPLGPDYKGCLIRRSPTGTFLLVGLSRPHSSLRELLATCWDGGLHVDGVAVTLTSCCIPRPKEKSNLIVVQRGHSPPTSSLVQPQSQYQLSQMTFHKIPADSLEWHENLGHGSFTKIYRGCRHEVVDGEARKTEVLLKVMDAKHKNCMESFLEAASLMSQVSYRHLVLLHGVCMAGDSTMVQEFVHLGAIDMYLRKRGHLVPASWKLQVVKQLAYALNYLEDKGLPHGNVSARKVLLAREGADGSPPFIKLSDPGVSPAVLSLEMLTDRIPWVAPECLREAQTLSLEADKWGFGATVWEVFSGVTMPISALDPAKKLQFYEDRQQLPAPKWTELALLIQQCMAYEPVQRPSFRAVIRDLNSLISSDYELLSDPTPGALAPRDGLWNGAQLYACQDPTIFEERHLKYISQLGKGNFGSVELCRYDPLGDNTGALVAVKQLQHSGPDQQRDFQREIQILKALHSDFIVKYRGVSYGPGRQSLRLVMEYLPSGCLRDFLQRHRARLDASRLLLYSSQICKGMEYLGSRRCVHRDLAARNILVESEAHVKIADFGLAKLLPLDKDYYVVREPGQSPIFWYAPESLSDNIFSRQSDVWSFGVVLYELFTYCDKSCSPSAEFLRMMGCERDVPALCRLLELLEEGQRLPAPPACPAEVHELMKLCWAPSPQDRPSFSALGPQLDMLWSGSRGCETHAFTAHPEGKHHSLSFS
How it was run: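 Continuous-read Omnia kinase assay with 5 nM JAK3, 5 μM ATP (near apparent Km) and 5 μM Y12-Sox peptide in Tris pH 7.5/MgCl2 buffer; enzyme pre-incubated with compound 30 min at 27 °C. Fluorescence (ex360/em485) read over 60 min; initial velocities fitted against inhibitor concentration to give IC50.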

[2] = target: BTK (Homo sapiens, UniProt Q06187); assay: Omnia assay for potency against BTK; format: biochemical; details: read-out: BTK Inhibition
How it was run: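 BTK (5 nM) was pre-incubated 30 min at 27° C with serially diluted compounds in Tris pH 7.5/MgCl2 buffer, then started with […] and Y5-Sox peptide 10 mM (ATP KMapp ~36 mM). Fluorescence (ex360/em485) was read continuously over 60 min. IC50 came from initial velocities using a variable-slope fit.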

[3] = target: T2, EGFR (T790M/L858R) (Homo sapiens, UniProt P00533, L858R/T790M); assay: Omnia continuous-read kinase assay, EGFR (T790M/L858R); format: biochemical; details: read-out: EGFR (T790M/L858R) inhibiton
T2 construct: purchased BPS Bioscience 40350
T2 sequence (P00533 25-1210 T790M/L858R): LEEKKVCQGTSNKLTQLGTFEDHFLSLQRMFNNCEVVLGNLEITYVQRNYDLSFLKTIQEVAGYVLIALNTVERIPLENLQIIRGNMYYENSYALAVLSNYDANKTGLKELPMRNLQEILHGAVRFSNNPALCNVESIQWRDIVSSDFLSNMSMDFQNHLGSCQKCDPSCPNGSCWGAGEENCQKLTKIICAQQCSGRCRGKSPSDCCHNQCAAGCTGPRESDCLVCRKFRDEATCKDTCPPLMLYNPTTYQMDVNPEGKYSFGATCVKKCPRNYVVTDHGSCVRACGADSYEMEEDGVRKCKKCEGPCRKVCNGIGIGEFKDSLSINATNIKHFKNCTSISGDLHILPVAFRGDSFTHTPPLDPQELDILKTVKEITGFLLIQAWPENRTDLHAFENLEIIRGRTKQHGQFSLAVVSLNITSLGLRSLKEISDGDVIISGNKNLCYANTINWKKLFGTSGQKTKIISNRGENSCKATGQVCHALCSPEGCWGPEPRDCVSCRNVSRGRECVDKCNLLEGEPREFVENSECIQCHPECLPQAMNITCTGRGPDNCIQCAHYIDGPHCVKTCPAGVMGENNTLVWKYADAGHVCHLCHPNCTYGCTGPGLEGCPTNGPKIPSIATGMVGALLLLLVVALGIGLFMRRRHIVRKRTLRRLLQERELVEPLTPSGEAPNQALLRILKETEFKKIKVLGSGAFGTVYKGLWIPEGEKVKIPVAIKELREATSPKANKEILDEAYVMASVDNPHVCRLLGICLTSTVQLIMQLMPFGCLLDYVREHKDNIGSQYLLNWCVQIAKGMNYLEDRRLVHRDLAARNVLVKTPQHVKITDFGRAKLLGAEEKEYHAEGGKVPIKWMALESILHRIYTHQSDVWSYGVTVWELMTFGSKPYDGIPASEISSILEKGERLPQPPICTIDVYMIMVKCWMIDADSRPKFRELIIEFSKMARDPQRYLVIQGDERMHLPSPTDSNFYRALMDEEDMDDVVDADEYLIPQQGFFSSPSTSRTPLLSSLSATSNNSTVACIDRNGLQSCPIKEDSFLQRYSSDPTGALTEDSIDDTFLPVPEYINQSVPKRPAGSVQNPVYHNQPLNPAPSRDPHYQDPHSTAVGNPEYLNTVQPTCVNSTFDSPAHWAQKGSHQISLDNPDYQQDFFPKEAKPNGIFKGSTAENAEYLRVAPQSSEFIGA
How it was run: (§1)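 Enzyme pre-incubated 30 min at 27 °C with compound, then ATP/Y12-Sox peptide added; fluorescence (ex360/em485) read continuously 60 min in 20 mM Tris pH 7.5, 5 mM MgCl2, 0.2 mM DTT. WT: 5 nM enzyme, […]; T790M/L858R: 3 nM enzyme, […]. IC50 from initial velocities, variable-slope fit.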

[4] = target: T3, EGFR (WT) (Homo sapiens, UniProt P00533); assay: Omnia continuous-read kinase assay, EGFR (WT); format: biochemical; details: read-out: EGFR inhibtion
T3 construct: purchased Invitrogen PV3872
T3 sequence (P00533 25-1210): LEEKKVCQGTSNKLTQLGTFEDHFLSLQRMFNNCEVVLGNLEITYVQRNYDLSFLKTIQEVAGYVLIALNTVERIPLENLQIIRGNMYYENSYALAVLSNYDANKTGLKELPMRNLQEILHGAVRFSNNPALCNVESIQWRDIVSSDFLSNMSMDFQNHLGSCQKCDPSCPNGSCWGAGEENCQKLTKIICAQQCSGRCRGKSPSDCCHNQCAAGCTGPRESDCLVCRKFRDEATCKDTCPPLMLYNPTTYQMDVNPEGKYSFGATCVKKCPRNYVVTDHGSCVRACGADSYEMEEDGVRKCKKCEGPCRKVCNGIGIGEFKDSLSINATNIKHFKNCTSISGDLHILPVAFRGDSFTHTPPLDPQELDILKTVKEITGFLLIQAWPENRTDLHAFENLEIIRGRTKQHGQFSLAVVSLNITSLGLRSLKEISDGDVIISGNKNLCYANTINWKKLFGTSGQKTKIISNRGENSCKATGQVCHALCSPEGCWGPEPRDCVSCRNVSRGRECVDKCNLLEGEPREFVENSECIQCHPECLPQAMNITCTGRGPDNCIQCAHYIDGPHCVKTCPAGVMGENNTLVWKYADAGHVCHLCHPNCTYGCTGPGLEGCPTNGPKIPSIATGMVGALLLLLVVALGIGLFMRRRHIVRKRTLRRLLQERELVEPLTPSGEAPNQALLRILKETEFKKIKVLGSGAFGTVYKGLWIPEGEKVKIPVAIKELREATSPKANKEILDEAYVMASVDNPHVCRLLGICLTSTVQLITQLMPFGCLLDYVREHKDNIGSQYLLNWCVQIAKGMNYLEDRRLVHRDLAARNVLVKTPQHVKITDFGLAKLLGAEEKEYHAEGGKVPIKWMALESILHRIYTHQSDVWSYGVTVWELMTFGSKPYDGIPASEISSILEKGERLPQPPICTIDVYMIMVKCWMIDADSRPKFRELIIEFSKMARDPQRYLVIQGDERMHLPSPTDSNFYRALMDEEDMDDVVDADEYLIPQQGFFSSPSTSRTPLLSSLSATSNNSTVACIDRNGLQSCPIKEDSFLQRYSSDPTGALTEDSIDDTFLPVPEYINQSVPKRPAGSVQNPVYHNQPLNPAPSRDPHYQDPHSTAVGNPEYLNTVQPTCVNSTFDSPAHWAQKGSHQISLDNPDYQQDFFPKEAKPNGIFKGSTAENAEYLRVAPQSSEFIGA
How it was run: as §1

[5] = tested on: BTK signaling in Ramos cells; assay: BTK Ramos cellular assay (PLCγ2 phosphorylation); format: cell-based; details: Homo sapiens; Ramos cells, PLCγ2 phosphorylation; read-out: BTK Inhibition
Description: Compounds 1-13 and (I-52) were assayed in Ramos human Burkitt lymphoma cells. Ramos cells were grown in suspension in T225 flasks, spun down, resuspended in 50 mls serum-free media and incubated for 1 hour. Compound was added to Ramos cells in serum free media to a final concentration of 1, 0.1, 0.01, or 0.001 μM. Ramos cells were incubated with compound for 1 hour, washed again and resuspended in 100 ul serum-free media. Cells were then stimulated with 1 μg of goat F(ab′)2 Anti-Human IgM and incubated on ice for 10 minutes to activate B cell receptor signaling pathways. After 10 minutes, the cells were washed once with PBS and then lysed on ice with Invitrogen Cell Extraction buffer. 16 μg total protein from lysates was loaded on gels and blots were probed for phosphorylation of the BTK substrate PLCγ2. […] Additional dose response inhibition of BTK signaling with I-13 is depicted in FIG. 9.

[6] = target: ErbB4 (Homo sapiens, UniProt Q15303); assay: Z'-LYTE biochemical assay, ErbB4 kinase inhibition
ErbB4, sequence (Q15303 26-1308): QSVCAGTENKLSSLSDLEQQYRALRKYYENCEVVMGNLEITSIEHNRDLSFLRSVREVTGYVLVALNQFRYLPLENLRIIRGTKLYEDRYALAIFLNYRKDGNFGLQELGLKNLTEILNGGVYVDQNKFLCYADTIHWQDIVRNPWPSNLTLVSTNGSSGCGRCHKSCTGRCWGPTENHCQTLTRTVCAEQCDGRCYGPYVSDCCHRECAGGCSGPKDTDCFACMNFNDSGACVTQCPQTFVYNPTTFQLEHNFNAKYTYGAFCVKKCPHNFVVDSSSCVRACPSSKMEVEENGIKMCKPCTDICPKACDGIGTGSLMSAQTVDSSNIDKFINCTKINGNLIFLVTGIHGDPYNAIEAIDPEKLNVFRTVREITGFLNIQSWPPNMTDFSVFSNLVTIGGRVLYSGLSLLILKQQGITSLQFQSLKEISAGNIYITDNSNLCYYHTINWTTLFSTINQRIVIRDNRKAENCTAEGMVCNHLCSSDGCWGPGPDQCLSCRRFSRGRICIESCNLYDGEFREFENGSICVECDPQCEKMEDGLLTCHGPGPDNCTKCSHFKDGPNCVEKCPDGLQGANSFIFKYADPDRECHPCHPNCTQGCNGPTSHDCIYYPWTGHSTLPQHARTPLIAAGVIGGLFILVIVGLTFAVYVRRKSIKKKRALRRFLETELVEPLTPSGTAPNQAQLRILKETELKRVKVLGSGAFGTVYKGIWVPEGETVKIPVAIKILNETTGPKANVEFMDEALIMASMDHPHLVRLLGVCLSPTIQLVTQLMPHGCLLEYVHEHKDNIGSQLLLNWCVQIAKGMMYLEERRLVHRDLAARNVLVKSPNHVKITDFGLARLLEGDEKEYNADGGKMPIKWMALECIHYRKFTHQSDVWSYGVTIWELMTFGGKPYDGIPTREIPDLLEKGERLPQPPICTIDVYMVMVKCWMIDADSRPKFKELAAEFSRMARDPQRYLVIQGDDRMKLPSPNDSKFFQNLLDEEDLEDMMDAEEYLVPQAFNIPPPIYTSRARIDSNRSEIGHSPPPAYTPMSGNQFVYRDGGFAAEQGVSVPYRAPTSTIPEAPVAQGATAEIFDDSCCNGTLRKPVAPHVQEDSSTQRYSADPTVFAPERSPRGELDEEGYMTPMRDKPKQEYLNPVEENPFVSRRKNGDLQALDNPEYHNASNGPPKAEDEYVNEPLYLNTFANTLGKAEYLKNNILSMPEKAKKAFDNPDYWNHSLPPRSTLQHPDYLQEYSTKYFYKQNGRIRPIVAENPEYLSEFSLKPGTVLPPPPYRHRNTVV
Description: (§2) Compounds of the present invention were assayed as inhibitors of one or more of ErbB1, ErbB2, and/or ErbB4 in a manner substantially similar to the method described by Invitrogen Corp (Invitrogen Corporation, 1600 Faraday Avenue, Carlsbad, Calif., CA; http://www.invitrogen.com/downloads/Z-LYTE_Brochure—1205.pdf) using the Z′-LYTE™ biochemical assay procedure or similar biochemical assay. The Z′-LYTE™ biochemical assay employs a fluorescence-based, coupled-enzyme format and is based on the differential sensitivity of phosphorylated and non-phosphorylated peptides to proteolytic cleavage.

[7] = target: ErbB1 (Homo sapiens, UniProt P00533); assay: Z'-LYTE biochemical assay, ErbB1 kinase inhibition; details: for inhibition at 0.01 µM: @ 10 nM
ErbB1, sequence (P00533 25-1210): as the sequence (P00533 25-1210) above
How it was run: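 Fluorescence-based coupled-enzyme Z′-LYTE format: kinase phosphorylation of a peptide substrate is read by differential protease cleavage of phosphorylated versus non-phosphorylated peptide.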

[8] = target: ErbB2 (Homo sapiens, UniProt P04626); assay: Z'-LYTE biochemical assay, ErbB2 kinase inhibition
Description: as §2

[9] = tested on: BTK in Ramos cells; assay: Washout experiment with Ramos cells for BTK activity; format: cell-based, human; details: Ramos washout assay, 100 nM compound for 1 hour
Description: Ramos cells were serum starved for one hour in RPMI media+1% glutamine at 37° C. After starvation, Ramos cells were treated with 100 nM compound diluted in serum free RPMI media for 1 hour. After compound treatment, the media was removed and cells were washed with compound-free media. Subsequently, Ramos cells were washed every 2 hours and resuspended in fresh compound-free media. Cells were collected at specified timepoints, treated with 1 ug anti-human IgM (Southern Biotech cat #2022-01) for 10 minutes on ice to induce BCR signaling and then washed in PBS. Ramos cells were then lysed in Cell Extraction Buffer (Invitrogen FNN0011) supplemented with Roche complete protease inhibitor tablets (Roche 11697498001) and phosphatase inhibitors (Roche 04 906 837 001) and 18 ug total protein lysate was loaded in each lane. Inhibition of BTK kinase activity was assayed by measuring its substrate (PLCγ2) phosphorylation by western blot with phospho-specific antibodies from Cell Signaling Technologies cat#3871. FIG. 10 depicts the results of compound I-13 in the washout experiment at 0 hour, 4 hour, 6 hour, and 8 hour time points.

[10] = tested on: EGFR (ErbB1) in A431 human epidermoid carcinoma cells; assay: Washout experiment for EGFR activity in A431 cells; format: cell-based; details: for enzyme inhibition after washout: A431 cells, 1 μM for 1 hr, EGF stimulation
Description: A431 human epidermoid carcinoma cells were grown in 6-well plates to 90% confluence and then incubated in serum-free media for 18 hr. Duplicate sets of cells were treated with 1 μM designated compound for 1 hr. One set of cells was then stimulated with 100 ng/ml EGF for 5 min, and extracts were made as described. The other set of cells was washed free of the compound with warmed compound-free medium, incubated for 2 hr, washed again, incubated another 2 hr, washed again, and then incubated another 2 hr washed again and incubated for additional 2 hr and then stimulated with EGF.

SMILES | IC50 [1] [nM] | IC50 [2] [nM] | IC50 [3] [nM] | IC50 [4] [nM] | IC50 [5] [nM] | inhibition at 1 µM [6] [%] | inhibition at 0.01 µM [7] [%] | inhibition at 1 µM [8] [%] | inhibition at 0.1 µM ([7]; @ 100 nM) [%] | inhibition at 0.01 µM ([6]; @ 10 nM) [%] | inhibition at 0.1 µM ([6]; @ 100 nM) [%] | inhibition at 1 µM [7] [%] | inhibition at 0.01 µM ([8]; @ 10 nM) [%] | inhibition at 0.1 µM ([8]; @ 100 nM) [%] | BTK Inhibition Type [9] | enzyme inhibition after washout [10] | type of binding to ErbB1 (irreversible / reversible) ([10]; washout experiment, FIG. 2)
C=CS(=O)(=O)Nc1cccc(Nc2cc(Nc3cccc(C)c3)ncn2)c1 [I-5, N-{3-[6-(3-methylphenylamino)-pyrimidin-4-ylamino]phenyl}-ethenesulfonamide] | ≤ 10 | ≤ 10 | ≤ 10 | ≤ 10 | 100 to 1000 | 95 | 100 | 86 | – | – | – | – | – | – | – | – | –
C=CS(=O)(=O)Nc1cccc(Nc2cc(Nc3ccc(OCc4cccc(F)c4)c(Cl)c3)ncn2)c1 [I-7, N-{3-[6-(3-chloro-4-(3-fluorophenyl)methoxy-phenylamino)-pyrimidin-4-ylamino]phenyl}-ethenesulfonamide] | 100 to 1000 | 10 to 100 | 10 to 100 | ≤ 10 | – | 100 | 53 | 89 | 100 | – | – | – | – | – | – | – | –
C=CC(=O)Nc1cccc(Nc2cc(Nc3ccc(OCc4ccccn4)c(Cl)c3)ncn2)c1 [I-16, N-(3-(6-(3-chloro-4-(pyridin-2-ylmethoxy)phenylamino)pyrimidin-4-ylamino)phenyl)-2-propenamide] | 10 to 100 | 10 to 100 | 10 to 100 | ≤ 10 | – | – | – | – | – | 26 | 93 | 98 | 24 | 87 | – | – | –
Cc1cccc(Nc2cc(Nc3cccc(NC(=O)/C=C/CN(C)C)c3)ncn2)c1 [I-17, (E)-N-{3-[6-(3-methylphenylamino)-pyrimidin-4-ylamino]phenyl}-4-dimethylamino-2-butenamide] | 10 to 100 | ≤ 10 | 10 to 100 | ≤ 10 | ≥ 1000 | 94 | – | 89 | – | – | – | 95 | – | – | – | – | –
CN(C)C/C=C/C(=O)Nc1cccc(Nc2cc(Nc3ccc(OCc4ccccn4)c(Cl)c3)ncn2)c1 [I-19, (E)-N-(3-(6-(3-chloro-4-(pyridin-2-ylmethoxy)phenylamino)-pyrmidin-4-ylamino)phenyl)-4-(dimethylamino)but-2-enamide] | 100 to 1000 | 10 to 100 | ≤ 10 | ≤ 10 | – | 97 | – | 98 | – | – | – | 96 | – | – | – | – | –
CN(C)C/C=C/C(=O)Nc1cccc(Nc2cc(Oc3ccc(Oc4ccccc4)cc3)ncn2)n1 [I-82] | 10 to 100 | ≤ 10 | – | ≤ 10 | ≤ 10 | – | – | – | – | – | – | – | – | – | irreversible | – | –
C=CC(=O)Nc1ccc(Nc2cc(Nc3cccc(Br)c3)ncn2)cc1 [I-93, N-(4-[6-(3-bromophenylamino)-pyrimidin-4-ylamino]phenyl)-2-propenamide] | ≥ 10000 | 1000 to 10000 | – | ≤ 10 | – | – | – | – | – | – | – | – | – | – | – | washed away | reversibly binds to ErbB1
CCC(=O)Nc1cccc(Nc2cc(Nc3cccc(Br)c3)ncn2)c1 [I^R-3, N-{3-[6-(3-bromophenylamino)-pyrimidin-4-ylamino]phenyl}-propionamide, reference compound] | – | – | – | – | – | – | – | – | – | – | – | – | – | – | – | washed away | –
